Measurements taken from PubChem BioAssay AID1963979 (Molecular Pharmacology Branch, DTP, NCI, 2024).

Test system: 361931-004-R-J1-PDC multicell spheroid viability
Assay: Anticancer human tumor 361931-004-R-J1-PDC patient-derived colon adenocarcinoma cell line growth inhibition [PI3K]
Conditions: for IC50: curve of first compound; for viability, T/C: stronger effect = lower value
Summary of the method: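 Tumor cells were combined with HUVEC and MSCs into spheroids, then dosed with PI3K-inhibitor combinations over half-log ranges capped near clinical Cmax or 10 microM.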

[1] = second compound 0.0316 µM, first compound 0.0316 µM
[2] = second compound 0.0316 µM, first compound 0.1 µM
[3] = second compound 0.0316 µM, first compound 0.316 µM
[4] = second compound 0.0316 µM, first compound 1 µM
[5] = second compound 0.0316 µM, first compound 3.16 µM
[6] = second compound 0.0316 µM, first compound 10 µM
[7] = second compound 0.1 µM, first compound 0.0316 µM
[8] = second compound 0.1 µM, first compound 0.1 µM
[9] = second compound 0.1 µM, first compound 0.316 µM
[10] = second compound 0.1 µM, first compound 1 µM
[11] = second compound 0.1 µM, first compound 3.16 µM
[12] = second compound 0.1 µM, first compound 10 µM
[13] = second compound 0.316 µM, first compound 0.0316 µM
[14] = second compound 0.316 µM, first compound 0.1 µM
[15] = second compound 0.316 µM, first compound 0.316 µM
[16] = second compound 0.316 µM, first compound 1 µM
[17] = second compound 0.316 µM, first compound 3.16 µM
[18] = second compound 0.316 µM, first compound 10 µM
[19] = second compound 1 µM, first compound 0.0316 µM
[20] = second compound 1 µM, first compound 0.1 µM
[21] = second compound 1 µM, first compound 0.316 µM
[22] = second compound 1 µM, first compound 1 µM
[23] = second compound 1 µM, first compound 3.16 µM
[24] = second compound 1 µM, first compound 10 µM
[25] = second compound 3.16 µM, first compound 0.0316 µM
[26] = second compound 3.16 µM, first compound 0.1 µM
[27] = second compound 3.16 µM, first compound 0.316 µM
[28] = second compound 3.16 µM, first compound 1 µM
[29] = second compound 3.16 µM, first compound 3.16 µM
[30] = second compound 3.16 µM, first compound 10 µM
[31] = second compound 10 µM, first compound 0.0316 µM
[32] = second compound 10 µM, first compound 0.1 µM
[33] = second compound 10 µM, first compound 0.316 µM
[34] = second compound 10 µM, first compound 1 µM
[35] = second compound 10 µM, first compound 3.16 µM
[36] = second compound 10 µM, first compound 10 µM
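Note: spheroids exposed to agents for seven days before readout.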

Structure (SMILES): CCCS(=O)(=O)Nc1ccc(F)c(C(=O)c2c[nH]c3ncc(-c4ccc(Cl)cc4)cc23)c1F + CC(Nc1ncnc2nc[nH]c12)c1cc2cccc(Cl)c2c(=O)n1-c1ccccc1
- IC50 (second compound 0.0316 µM): 5.29 µM
- IC50 (second compound 0.1 µM): 5.19 µM
- IC50 (second compound 0.316 µM): 5.59 µM
- IC50 (second compound 1 µM): 5.25 µM
- IC50 (second compound 3.16 µM): 5.52 µM
- IC50 (second compound 10 µM): 4.9 µM
- viability, T/C [1]: 111%
- viability, T/C [2]: 97.4%
- viability, T/C [3]: 96.4%
- viability, T/C [4]: 97.3%
- viability, T/C [5]: 84.7%
- viability, T/C [6]: 7.53%
- viability, T/C [7]: 108%
- viability, T/C [8]: 101%
- viability, T/C [9]: 94.3%
- viability, T/C [10]: 89.2%
- viability, T/C [11]: 84.9%
- viability, T/C [12]: 6.96%
- viability, T/C [13]: 105%
- viability, T/C [14]: 101%
- viability, T/C [15]: 96.1%
- viability, T/C [16]: 90.9%
- viability, T/C [17]: 92.1%
- viability, T/C [18]: 6.91%
- viability, T/C [19]: 100%
- viability, T/C [20]: 99.7%
- viability, T/C [21]: 94.9%
- viability, T/C [22]: 96.8%
- viability, T/C [23]: 83.5%
- viability, T/C [24]: 7.4%
- viability, T/C [25]: 98.8%
- viability, T/C [26]: 102%
- viability, T/C [27]: 103%
- viability, T/C [28]: 95.5%
- viability, T/C [29]: 90.1%
- viability, T/C [30]: 7.12%
- viability, T/C [31]: 99.3%
- viability, T/C [32]: 101%
- viability, T/C [33]: 98.1%
- viability, T/C [34]: 88.3%
- viability, T/C [35]: 78.1%
- viability, T/C [36]: 7.3%

Structure (SMILES): CNC(=O)c1ccc(N2C(=S)N(c3ccc(C#N)c(C(F)(F)F)c3)C(=O)C2(C)C)cc1F + COc1c(OCCCN2CCOCC2)ccc2c3n(c(=NC(=O)c4cnc(N)nc4)nc12)CCN3
- IC50 (second compound 0.00316 µM): > 10 µM
- IC50 (second compound 0.01 µM): > 10 µM
- IC50 (second compound 0.0316 µM): > 10 µM
- IC50 (second compound 0.1 µM): > 10 µM
- IC50 (second compound 0.316 µM): 3.98 µM
- IC50 (second compound 1 µM): < 0.0316 µM
- viability, T/C (second compound 0.00316 µM, first compound 0.0316 µM): 103%
- viability, T/C (second compound 0.00316 µM, first compound 0.1 µM): 102%
- viability, T/C (second compound 0.00316 µM, first compound 0.316 µM): 97.6%
- viability, T/C (second compound 0.00316 µM, first compound 1 µM): 103%
- viability, T/C (second compound 0.00316 µM, first compound 3.16 µM): 105%
- viability, T/C (second compound 0.00316 µM, first compound 10 µM): 88.5%
- viability, T/C (second compound 0.01 µM, first compound 0.0316 µM): 95.5%
- viability, T/C (second compound 0.01 µM, first compound 0.1 µM): 101%
- viability, T/C (second compound 0.01 µM, first compound 0.316 µM): 98.8%
- viability, T/C (second compound 0.01 µM, first compound 1 µM): 98.2%
- viability, T/C (second compound 0.01 µM, first compound 3.16 µM): 98.7%
- viability, T/C (second compound 0.01 µM, first compound 10 µM): 86.2%
- viability, T/C [1]: 83.6%
- viability, T/C [2]: 92.3%
- viability, T/C [3]: 91.7%
- viability, T/C [4]: 90%
- viability, T/C [5]: 95.7%
- viability, T/C [6]: 88.4%
- viability, T/C [7]: 81.1%
- viability, T/C [8]: 82.5%
- viability, T/C [9]: 76.1%
- viability, T/C [10]: 81.5%
- viability, T/C [11]: 86.1%
- viability, T/C [12]: 65.8%
- viability, T/C [13]: 56.2%
- viability, T/C [14]: 53%
- viability, T/C [15]: 54.1%
- viability, T/C [16]: 57.5%
- viability, T/C [17]: 52.8%
- viability, T/C [18]: 36.7%
- viability, T/C [19]: 28.7%
- viability, T/C [20]: 22.2%
- viability, T/C [21]: 22.7%
- viability, T/C [22]: 26.8%
- viability, T/C [23]: 26.5%
- viability, T/C [24]: 17.1%

Structure (SMILES): C=CC(=O)N1CCN(c2nc(=O)n(-c3c(C)ccnc3C(C)C)c3nc(-c4c(O)cccc4F)c(F)cc23)C(C)C1 (stereo unspecified) + CC(Nc1ncnc2nc[nH]c12)c1cc2cccc(Cl)c2c(=O)n1-c1ccccc1
- IC50 (second compound 0.0316 µM): > 10 µM
- IC50 (second compound 0.1 µM): > 10 µM
- IC50 (second compound 0.316 µM): > 10 µM
- IC50 (second compound 1 µM): > 10 µM
- IC50 (second compound 3.16 µM): > 10 µM
- IC50 (second compound 10 µM): > 10 µM
- viability, T/C [1]: 102%
- viability, T/C [2]: 102%
- viability, T/C [3]: 104%
- viability, T/C [4]: 104%
- viability, T/C [5]: 102%
- viability, T/C [6]: 99.3%
- viability, T/C [7]: 100%
- viability, T/C [8]: 95.8%
- viability, T/C [9]: 103%
- viability, T/C [10]: 111%
- viability, T/C [11]: 104%
- viability, T/C [12]: 92.5%
- viability, T/C [13]: 105%
- viability, T/C [14]: 108%
- viability, T/C [15]: 103%
- viability, T/C [16]: 98.3%
- viability, T/C [17]: 107%
- viability, T/C [18]: 86.8%
- viability, T/C [19]: 98.7%
- viability, T/C [20]: 109%
- viability, T/C [21]: 103%
- viability, T/C [22]: 106%
- viability, T/C [23]: 102%
- viability, T/C [24]: 90.5%
- viability, T/C [25]: 100%
- viability, T/C [26]: 103%
- viability, T/C [27]: 99.9%
- viability, T/C [28]: 104%
- viability, T/C [29]: 106%
- viability, T/C [30]: 89.9%
- viability, T/C [31]: 104%
- viability, T/C [32]: 108%
- viability, T/C [33]: 98.2%
- viability, T/C [34]: 100%
- viability, T/C [35]: 101%
- viability, T/C [36]: 93.6%
